“Also recorded” adds a separate entry of the source.
Assays:
[1] = test system: APP, Tau, and aSYN in the cerebrospinal fluid (CSF) of MCI subjects; assay: CSF biomarkers in MCI subjects before and after 10 days of buntanetap (proof of mechanism); settings: mildly cognitive impaired patients, 10 days of administration (FIG. 3)
[2] = test system: traumatic brain injury rats; settings: cited from earlier work
[3] = test system: hippocampal slices APP/PS1 transgenic mice; assay: Electrophysiological study: long-term potentiation (LTP) in hippocampal slices; assay type: in vivo
Experimental: Animals: Heterozygous double transgenic mice expressing both human APP (K670N:M671L) and human PS1 (M146L) (line 6.2) and their wild-type non-transgenic littermates, both males and females, were used for these experiments. They were obtained by a breeding colony maintained at the animal facility of Columbia University. They were genotyped through PCR on tail samples. Animals were injected i.p. from the age of […] for 1 month prior to starting behavioral assessment which lasted for 2 weeks during which treatment continued. Behavioral assessment examined spatial and associative memory. Finally, mice were sacrificed for electrophysiological assessment of synaptic function.
Mice were coded to blind investigators with respect to genotype and treatment. Results were expressed with Standard Error of the Mean (SEM). Level of significance was set for p<0.05. Results were analyzed by ANOVA analysis with post-hoc correction with the combination or genotype as main effect. Experiments were designed in a balanced fashion, and mice were trained and tested at each of the different conditions in 3 or 4 separate experiments.
Mice were i.p. injected with the drug from the age of 8 weeks prior to plaque appearance until euthanasia for collecting slices at the age of 14-16 weeks. The treatment with Buntanetap was daily, whereas the treatment with dulaglutide was twice a week.
Electrophysiological analysis was performed on 400 μm hippocampal slices, cut with a tissue chopper and maintained in an interface chamber at 29° C. for 90 min prior to recording. Briefly, CA1 fEPSPs were recorded by placing both the stimulating and the recording electrodes in CA1 stratum radiatum. Basal synaptic transmission was assayed, either by plotting the stimulus voltages against slopes of fEPSP, or by plotting the peak amplitude of the fiber volley against the slope of the fEPSP. For LTP experiments, a 15 min baseline was recorded every min at an intensity that evokes a response ˜35% of the maximum evoked response. LTP was induced using θ-burst stimulation (4 pulses at 100 Hz, with the bursts repeated at 5 Hz and each tetanus including 3 ten-burst trains separated by 15 see). Data was subjected to statistical analyses to determine the effects of combination on inhibiting synaptic dysfunction.

[4] = cited from earlier work
[5] = test system: APP in SH-SY-5Y human neuroblastoma cells; settings: cited from earlier work
[6] = test system: APP/PS1 transgenic (tg) mouse model of AD; settings: cited from earlier work
aSYN [7] = settings: transgenic Parkinson's animals, in the brain and in the gut; cited from earlier work
APP and its fragments [8] = settings: APP/PS1 transgenic mice; cited from earlier work
[9] = test system: APP in SH-SY-5Y human neuroblastoma cells; assay: APP in vitro (Western blot) in neuroblastoma cells; assay type: cell-based; settings: SH-SY-5Y cells; 0, 0.1, 1, 5 and 10 μM
[10] = test system: early AD patients and early PD patients; settings: cited from earlier work
aSYN [11] = settings: neuroblastoma cells; cited from earlier work
[12] = test system: Ts65dn mouse model of Down syndrome (DS); settings: cited from earlier work
tau = settings: unpublished observation, Peter Davies Laboratory; cited from earlier work
APP and its fragments [13] = assay: APP in vivo in APP/PS1 transgenic AD mice (hippocampus)
Source text: FIG. 2, APP in vivo. […] GAPDH and Synaptophysin were loading controls. FIG. 2 also includes a collection of graphs showing relative density of APP plotted against control and time after buntanetap treatment; relative density of CTFβ plotted against control and time after buntanetap treatment; relative density of CTFα plotted against control and time after buntanetap treatment; A042 levels in brain tissue plotted against control and time after buntanetap treatment; and A040 levels in brain tissue plotted against control and time after buntanetap treatment. Finally, FIG. 2 also includes a Western blot showing levels of APP, NSB, CTFβ, and CTFα after buntanetap treatment over time (minutes).

**Q.** What does the source list for `CN1CC[C@]2(C)c3cc(OC(=O)Nc4ccccc4)ccc3N(C)C12` (stereo partly drawn) [Buntanetap, (3aR)-1,3a,8-trimethyl-1,2,3,3a,8,8a-hexahydropyrrolo[2,3-b]indol-5-yl phenylcarbamate]?
**A.** APP/Abeta, tau/phospho-tau and alpha-synuclein in the spinal fluid [1]: reduction; also recorded: normalized; inflammation ([2]; rat brain after TBI): lowered; impaired synaptic transmission ([2]; rat striatum after traumatic brain injury (TBI)): Normalized; nerve cells ([2]; rat substantia Ingra after TBI): protected; memory and learning ([2]; traumatic brain injury rats): Preserved; % Improvement (Residual Potential) ([3]; APP/PS1, Buntanetap 1 mg/kg): 4.8%; Residual Potential (mean) ([3]; APP/PS1, Buntanetap 1 mg/kg i.p. daily): 141.55; Residual Potential (mean) ([3]; APP/PS1, Buntanetap 10 mg/kg i.p. daily): 213.56; % Improvement (Residual Potential) ([3]; APP/PS1, Buntanetap 10 mg/kg, 100% = wt veh minus APP/PS1 veh): 90.5%; impairment of synaptic plasticity measured through Long-term potentiation (LTP) ([3]; APP/PS1 mice, Buntanetap 1 mg/Kg and/or dulaglutide 0.1 mg/Kg): did not ameliorate; half-life in CSF ([4]; MCI subjects): > 12 h; tolerability ([4]; doses up to 4×60 mg daily X 10 days): well tolerated; concentration in brain relative to plasma ([4]; in vivo): about 8 times; terminal half-life ([4]; plasma, all doses, biphasic clearance): 4.3 to 4.7 h; levels of APP in vitro [5]: lowers; memory and learning ([6]; APP/PS1 transgenic (tg) mouse model of AD): Restored; impaired synaptic transmission ([6]; hippocampus of APP/PS1 tg mice): Normalized; aSYN in vivo (aSYN [7]): lowers; levels of APP and all its fragments (APP and its fragments [8]): lowers; APP in relation to Actin standard (Western blot) [9]: lowers APP in vitro in a dose-dependent manner; levels of neurotoxic proteins and inflammatory factors (biomarker data) ([10]; AD and PD cohorts): trend in lowering; axonal and synaptic function ([10]; AD and PD patients): improved; blood brain barrier crossing ([10]; AD and PD patients): crossed the blood brain barrier; inflammatory markers ([10]; AD and PD patients): reduced; neurotoxic protein biomarkers ([10]; AD and PD patients): reduced; ADAS-Cog11 and WAIS coding (psychometric tests) ([10]; AD patients, 80 mg QD): statistically significant improvements; cognition as measured by ADAS-Cog11 and WAIS coding speed ([10]; AD patients, statistical significance versus baseline at 80 mg dose but not placebo): improved; MDS-UPDRS and WAIS coding (psychometric tests) ([10]; PD patients, 5-80 mg QD): statistically significant improvements; motor function as measured by MDS-UPDRS (Part II, III, IV and total) ([10]; PD patients, all doses, maximum improvement for 10 & 20 mg): improved; WAIS speed and accuracy ([10]; PD patients, significant versus placebo in 5 mg, 20 mg and 80 mg arms): improved; safety and tolerability ([10]; doses up to 80 mg in both AD and PD patients): well tolerated; Cmax and AUC ([10]; plasma, without evidence for a plateau up to 80 mg QD): increased with dose; aSYN in vitro (aSYN [11]): lowers; memory and learning [12]: Restored; tau in vitro (tau): lowers; time after the last dose for which APP and all related peptides in hippocampus were reduced (APP and its fragments [13]; APP/PS1 mice): at least 9 hours; APP and its fragments in hippocampus (APP and its fragments [13]; APP/PS1 transgenic AD mice): reduced

— patent publication US20250235429A1, “TREATMENT OF DISEASES VIA ADMINISTRATION OF BUNTANETAP AND AN ANTIDIABETIC AGENT” (ANNOVIS BIO, INC., priority 2024, published 2025)
